Assay results from ChEMBL document CHEMBL1131247, “Substituted naphthofurans as hallucinogenic phenethylamine-ergoline hybrid molecules with unexpected muscarinic antagonist activity” (J Med Chem, 1998).

Experiments:
[1] = target: T1, Muscarinic acetylcholine receptor M2 (Rattus norvegicus) (UniProt P10980)
T1 sequence (whole entry): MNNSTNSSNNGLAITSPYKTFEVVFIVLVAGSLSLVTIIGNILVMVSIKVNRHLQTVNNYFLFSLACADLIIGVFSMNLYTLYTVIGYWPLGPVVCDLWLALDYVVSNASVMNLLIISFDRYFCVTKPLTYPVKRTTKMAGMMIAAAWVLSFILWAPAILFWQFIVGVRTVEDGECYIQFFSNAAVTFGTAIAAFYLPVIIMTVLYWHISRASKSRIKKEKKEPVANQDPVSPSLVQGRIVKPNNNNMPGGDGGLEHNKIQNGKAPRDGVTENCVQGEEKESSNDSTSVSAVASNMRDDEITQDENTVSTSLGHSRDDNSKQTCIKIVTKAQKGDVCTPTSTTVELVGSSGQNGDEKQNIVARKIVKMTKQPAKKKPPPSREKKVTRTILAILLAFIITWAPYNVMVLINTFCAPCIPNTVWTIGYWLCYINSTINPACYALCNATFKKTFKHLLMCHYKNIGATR

[2] = target: T2, Muscarinic acetylcholine receptor M4 (Rattus norvegicus) (UniProt P08485)
T2 sequence (whole entry): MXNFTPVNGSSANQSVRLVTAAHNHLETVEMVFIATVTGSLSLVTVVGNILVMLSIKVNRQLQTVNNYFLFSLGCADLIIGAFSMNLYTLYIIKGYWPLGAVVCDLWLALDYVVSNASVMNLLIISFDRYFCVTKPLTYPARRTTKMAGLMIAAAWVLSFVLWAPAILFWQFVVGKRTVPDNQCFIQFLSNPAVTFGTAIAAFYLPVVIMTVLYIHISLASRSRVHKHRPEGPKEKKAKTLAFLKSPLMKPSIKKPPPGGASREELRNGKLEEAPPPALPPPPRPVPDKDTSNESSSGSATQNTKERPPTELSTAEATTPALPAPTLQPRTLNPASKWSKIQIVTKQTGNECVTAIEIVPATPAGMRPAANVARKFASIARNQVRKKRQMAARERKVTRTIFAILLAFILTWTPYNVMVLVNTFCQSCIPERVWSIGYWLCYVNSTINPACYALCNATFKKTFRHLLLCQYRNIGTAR

[3] = target: T3, Muscarinic acetylcholine receptor M5 (Rattus norvegicus) (UniProt P08911)
T3 sequence (whole entry): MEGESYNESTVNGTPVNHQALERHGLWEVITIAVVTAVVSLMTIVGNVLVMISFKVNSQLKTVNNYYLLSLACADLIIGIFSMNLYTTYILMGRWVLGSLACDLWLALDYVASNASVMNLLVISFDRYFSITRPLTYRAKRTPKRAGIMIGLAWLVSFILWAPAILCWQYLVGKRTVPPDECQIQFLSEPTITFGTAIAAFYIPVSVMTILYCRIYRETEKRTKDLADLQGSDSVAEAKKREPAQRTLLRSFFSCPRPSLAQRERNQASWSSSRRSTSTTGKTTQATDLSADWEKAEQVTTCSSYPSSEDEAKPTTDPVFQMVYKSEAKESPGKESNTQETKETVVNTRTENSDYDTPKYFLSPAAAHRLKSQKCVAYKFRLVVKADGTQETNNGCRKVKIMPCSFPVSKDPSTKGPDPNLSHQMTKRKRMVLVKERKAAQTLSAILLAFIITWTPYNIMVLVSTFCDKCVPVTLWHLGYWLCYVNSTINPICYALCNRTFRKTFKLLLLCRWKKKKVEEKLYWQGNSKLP

[4] = target: T4, Muscarinic acetylcholine receptor M1 (Mus musculus) (UniProt P12657)
T4 sequence (whole entry): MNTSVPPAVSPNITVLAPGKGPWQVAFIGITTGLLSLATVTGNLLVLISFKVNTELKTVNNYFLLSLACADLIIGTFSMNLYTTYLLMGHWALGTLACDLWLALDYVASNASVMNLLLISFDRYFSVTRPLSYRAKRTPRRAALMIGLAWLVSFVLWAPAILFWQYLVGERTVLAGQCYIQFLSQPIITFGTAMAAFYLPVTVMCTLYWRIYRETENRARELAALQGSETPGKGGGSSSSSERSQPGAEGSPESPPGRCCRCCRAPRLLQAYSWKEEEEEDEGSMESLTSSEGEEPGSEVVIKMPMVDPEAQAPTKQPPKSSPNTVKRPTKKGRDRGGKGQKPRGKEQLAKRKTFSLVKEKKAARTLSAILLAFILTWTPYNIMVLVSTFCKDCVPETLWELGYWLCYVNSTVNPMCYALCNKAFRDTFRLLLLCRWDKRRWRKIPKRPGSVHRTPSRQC

[5] = target: Muscarinic acetylcholine receptor M3 (Rattus norvegicus) (UniProt P08483)
Muscarinic acetylcholine receptor M3 (Rattus norvegicus), sequence (P08483 whole entry, looked up): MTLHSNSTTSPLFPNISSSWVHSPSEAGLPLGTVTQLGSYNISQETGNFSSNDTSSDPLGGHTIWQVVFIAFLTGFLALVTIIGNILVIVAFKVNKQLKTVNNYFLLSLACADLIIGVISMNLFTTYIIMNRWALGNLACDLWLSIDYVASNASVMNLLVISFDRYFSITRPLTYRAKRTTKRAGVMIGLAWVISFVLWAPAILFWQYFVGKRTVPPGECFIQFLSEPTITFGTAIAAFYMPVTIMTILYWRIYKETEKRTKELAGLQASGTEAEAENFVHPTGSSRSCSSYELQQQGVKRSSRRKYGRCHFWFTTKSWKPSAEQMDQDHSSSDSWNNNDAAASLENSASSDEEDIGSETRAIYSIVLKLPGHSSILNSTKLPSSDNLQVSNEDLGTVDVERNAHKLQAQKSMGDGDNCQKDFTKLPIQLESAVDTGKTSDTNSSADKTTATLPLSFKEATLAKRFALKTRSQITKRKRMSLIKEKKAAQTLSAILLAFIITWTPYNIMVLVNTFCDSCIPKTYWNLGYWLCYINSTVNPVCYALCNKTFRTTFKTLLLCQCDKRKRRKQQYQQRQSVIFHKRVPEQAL

[6] = target: T5, 5-hydroxytryptamine receptor 1A (Rattus norvegicus, UniProt P19327); assay: Affinity at [3H]8-OH-DPAT-labeled 5-hydroxytryptamine 1A receptor in rat brain homogenate was determined; assay type: tissue-based
T5 sequence (P19327 whole entry): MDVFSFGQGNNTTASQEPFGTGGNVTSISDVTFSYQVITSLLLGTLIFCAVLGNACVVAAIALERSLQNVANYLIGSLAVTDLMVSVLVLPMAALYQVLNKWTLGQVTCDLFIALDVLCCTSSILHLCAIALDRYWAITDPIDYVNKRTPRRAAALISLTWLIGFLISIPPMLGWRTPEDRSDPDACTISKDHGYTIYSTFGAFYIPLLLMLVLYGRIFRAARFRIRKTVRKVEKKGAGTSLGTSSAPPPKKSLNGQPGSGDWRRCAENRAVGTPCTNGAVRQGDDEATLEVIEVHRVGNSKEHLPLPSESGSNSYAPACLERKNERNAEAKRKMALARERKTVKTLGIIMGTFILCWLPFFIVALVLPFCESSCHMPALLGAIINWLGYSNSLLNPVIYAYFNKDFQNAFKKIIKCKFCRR

[7] = target: T6, 5-hydroxytryptamine receptor 2A (Homo sapiens, UniProt P28223); assay: Binding ability of compound at cloned human 5-hydroxytryptamine 2A receptor using [125 I]DOI as radioligand
T6 sequence (P28223 whole entry): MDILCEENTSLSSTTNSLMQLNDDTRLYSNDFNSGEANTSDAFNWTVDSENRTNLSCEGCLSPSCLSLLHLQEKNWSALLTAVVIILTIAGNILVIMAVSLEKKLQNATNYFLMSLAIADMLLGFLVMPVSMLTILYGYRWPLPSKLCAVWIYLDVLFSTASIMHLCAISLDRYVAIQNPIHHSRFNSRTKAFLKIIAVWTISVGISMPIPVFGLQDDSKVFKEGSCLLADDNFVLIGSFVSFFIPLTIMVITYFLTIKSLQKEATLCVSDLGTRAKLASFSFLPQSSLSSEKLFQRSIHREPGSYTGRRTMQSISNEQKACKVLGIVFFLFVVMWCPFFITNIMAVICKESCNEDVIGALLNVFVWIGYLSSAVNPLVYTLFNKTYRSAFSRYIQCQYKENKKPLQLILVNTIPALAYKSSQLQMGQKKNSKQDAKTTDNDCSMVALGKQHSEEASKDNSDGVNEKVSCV

[8] = target: T7, 5-hydroxytryptamine receptor 2B (Homo sapiens, UniProt P41595); assay: Binding ability of compound at cloned human 5-hydroxytryptamine 2B receptor using [3H]5-HT 2B as radioligand
T7 sequence (P41595 whole entry): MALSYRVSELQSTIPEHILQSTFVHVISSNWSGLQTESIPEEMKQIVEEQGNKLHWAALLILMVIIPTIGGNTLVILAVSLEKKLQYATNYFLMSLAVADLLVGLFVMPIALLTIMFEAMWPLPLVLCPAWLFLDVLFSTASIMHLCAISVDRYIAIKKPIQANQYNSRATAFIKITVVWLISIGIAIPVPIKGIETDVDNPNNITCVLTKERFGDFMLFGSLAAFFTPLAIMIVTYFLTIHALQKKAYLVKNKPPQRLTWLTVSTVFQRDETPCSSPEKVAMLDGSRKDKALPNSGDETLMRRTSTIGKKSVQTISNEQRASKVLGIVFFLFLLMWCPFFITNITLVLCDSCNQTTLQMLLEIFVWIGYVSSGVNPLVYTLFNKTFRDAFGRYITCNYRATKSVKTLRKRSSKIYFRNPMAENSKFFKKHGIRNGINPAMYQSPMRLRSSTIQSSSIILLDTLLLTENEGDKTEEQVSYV

[9] = target: T7, 5-hydroxytryptamine receptor 2B; assay: Binding ability of compound at cloned human 5-hydroxytryptamine 2B receptor using [3H]rauwolscine as radioligand
[10] = target: 5-hydroxytryptamine receptor 2A (Rattus norvegicus, UniProt P14842); assay: Affinity at [3H]ketanserin-labeled 5-hydroxytryptamine 2A receptor in rat brain homogenate was determined; assay type: tissue-based
5-hydroxytryptamine receptor 2A (Rattus norvegicus, UniProt P14842), sequence (P14842 whole entry): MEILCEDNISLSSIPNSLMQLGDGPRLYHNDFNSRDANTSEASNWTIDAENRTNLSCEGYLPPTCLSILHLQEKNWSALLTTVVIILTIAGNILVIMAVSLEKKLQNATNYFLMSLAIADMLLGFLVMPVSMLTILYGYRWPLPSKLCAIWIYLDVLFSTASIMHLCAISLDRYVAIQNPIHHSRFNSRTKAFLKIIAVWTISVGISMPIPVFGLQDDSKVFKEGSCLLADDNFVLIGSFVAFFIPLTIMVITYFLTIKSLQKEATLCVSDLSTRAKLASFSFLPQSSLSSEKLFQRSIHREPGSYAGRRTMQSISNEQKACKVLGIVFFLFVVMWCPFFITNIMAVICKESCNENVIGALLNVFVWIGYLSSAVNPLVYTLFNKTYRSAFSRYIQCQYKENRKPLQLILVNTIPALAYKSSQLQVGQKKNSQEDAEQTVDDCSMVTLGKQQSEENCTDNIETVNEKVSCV

[11] = target: T8, 5-hydroxytryptamine receptor 2C (Homo sapiens, UniProt P28335); assay: Binding ability of compound at cloned human 5-hydroxytryptamine 2C receptor using [125 I]DOI as radioligand
T8 sequence (P28335 whole entry): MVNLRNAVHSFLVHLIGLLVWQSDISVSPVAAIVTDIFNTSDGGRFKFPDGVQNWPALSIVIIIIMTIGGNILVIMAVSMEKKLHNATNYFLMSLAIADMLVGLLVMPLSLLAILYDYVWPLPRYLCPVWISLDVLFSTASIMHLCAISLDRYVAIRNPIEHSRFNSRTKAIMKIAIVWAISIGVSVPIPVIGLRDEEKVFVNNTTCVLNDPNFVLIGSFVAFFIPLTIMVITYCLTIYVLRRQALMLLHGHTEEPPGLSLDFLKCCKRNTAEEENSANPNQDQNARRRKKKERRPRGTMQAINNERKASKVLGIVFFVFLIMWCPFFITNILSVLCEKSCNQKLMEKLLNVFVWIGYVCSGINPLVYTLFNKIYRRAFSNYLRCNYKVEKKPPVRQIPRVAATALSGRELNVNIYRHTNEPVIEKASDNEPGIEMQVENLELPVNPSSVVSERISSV

[12] = target: T8, 5-hydroxytryptamine receptor 2C; assay: Binding ability of compound at cloned human 5-hydroxytryptamine 2C receptor using [3H]- mesulergine as radioligand
[13] = species on record: Rattus norvegicus; assay: Effective dose for LSD-like behavioral effect in rats; assay type: functional
[14] = target: T6, 5-hydroxytryptamine receptor 2A; assay: Binding ability of compound at cloned human 5-hydroxytryptamine 2A receptor using [3H]ketanserin as radioligand

SMILES | K 0.5 [1] [nM] | K 0.5 [2] [nM] | K 0.5 [3] [nM] | K 0.5 [4] [nM] | K 0.5 [5] [nM] | Ki [6] [µM] | Ki [7] [µM] | Ki [8] [µM] | Ki [9] [µM] | Ki [10] [µM] | Ki [11] [µM] | Ki [12] [µM] | ED50 [13] [mg/kg] | Ki [14] [µM]
CN1[C@@H]2CC[C@H]1C[C@@H](OC(=O)C(CO)c1ccccc1)C2 (stereo partly drawn) | 1.8 | 0.5 | 0.7 | 0.6 | 0.6 | – | – | – | – | – | – | – | – | –
C[C@@H](N)Cc1c2c(c(Br)c3c1OCC3)OCC2 | – | – | – | – | – | 4.3 | 0.00048 | 0.0016 | 0.00115 | 0.018 | 0.0003 | 0.00228 | 0.061 | 0.0107
COc1ccc2c3c1C[C@H](N(C)C)C[C@@H]3CO2 | 953 | 913 | 1100 | 846 | 654 | 38 | – | – | – | 0.967 | – | – | – | –
COc1cc(C[C@@H](C)N)c(OC)cc1Br | – | – | – | – | – | 6.1 | – | – | – | – | – | – | 1.12 | –
COc1ccc2c3c1C[C@H](N)C[C@@H]3CO2 | 33400 | 240 | 236 | 149 | 129 | – | – | – | – | – | – | – | – | –
